In patent US6376666B1 (Nauchno-Issledovatelsky Institut Farmakologii Rossiiskoi …, priority 1994, dated 2002):

Tests used:
[1] = system: C57B1/6 mice; experiment: open-field test, C57B1/6 mice (active type of emotional-stress reaction); type: in vivo; settings: i.p., doses that activate Balb/c mice
How it was run: (§1)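 Male mice, 20-22 g, dosed i.p. in water 30 min before a 3-min open-field test after 1 min in darkness; peripheral, central, rearing and total activity plus defecations recorded; Student t-test. Anxiolysis read as Balb/c activation, sedation as C57B1/6 inhibition.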

[2] = system: cats; experiment: hemodynamics and activity of intact heart in cats under anesthesia; type: in vivo; settings: for Cardiac volume, change from basal level / Heart rate, change from basal level / Mean blood flow accelaration (aortic), change from basal level / Mean blood pressure, change from basal level / Stroke volume, change from basal level: cats
Method: The effects of compounds on the hemodynamics and activity of intact heart were studied in cats under anesthesia. The experiments were carried out under conditions of open chest. The phase curve of aortic blood flow was the main index of cardiac activity. The compounds were administered i.v. in physiological solution. The t-Student' test was used to estimate the statistical significance.

[3] = system: adrenaline arrhythmia; experiment: adrenaline arrhythmia in concious rabbits; settings: given 2 min before arrhythmogenic dose of adrenaline
Method: Adrenaline arrhythmia. The 0,1% solution of adrenaline hydrochloride was injected to the marginal ear's vein of rabbit weighing 2,5-3,0 kg at dose ranging 120-150 mcg/kg which induced cardiac rhythm disturbances of two types.
The tested compound was injected in 3 ml of distilled water 30 min after determination of arrhythmogenic dose of adrenaline and the ECG was recorded in 2nd standard lead. 2 min after administration of tested compound the arrhythmogenic dose of adrenaline was injected.

[4] = system: Balb/c mice; experiment: open-field test, Balb/c mice (passive type of emotional-stress reaction); type: in vivo; set-up: key to Total activity: sum of all locomotor activity counts (crossings + rearings) in 3 min
How it was run: as §1

[5] = system: calcium chloride arrhythmia; experiment: calcium chloride arrhythmia in concious rats; type: in vivo
Method: In these experiments the outbred concious rats 180-200 g of weight were injected with 10% solution of calcium chloride in tail vein at dose range of 250-300 mg/kg.

[6] = 0.5 mg/kg i.v., after injection
[7] = 1.0 mg/kg i.v., after injection
[8] = 0.1 mg/kg i.p., M ± mx, 0.1 mg/kg
[9] = 1.0 mg/kg i.p., M ± mx, 1 mg/kg
[10] = 10.0 mg/kg i.p., M ± mx, 10 mg/kg

## CCOc1ccc2nc(SCCN(CC)CC)[nH]c2c1 [Compound IX, 2-[2-(Diethylamino)ethylthio]-5-ethoxybenz-imidazole]
[1]
  effect on locomotor activity of C57B1/6 mice in open-field test, in words: without any changes in locomotor activity
[2]; cats i.v., same doses as bradycardia
  effect on contractile function of heart, in words: slightly enhanced the contractility of myocardium
[2]; cats i.v., VIII 1,0, IX 0,5 and 1,0, XX 1,0 and 2,0 mg/kg
  duration of bradycardia after administration: 30 min
[2]; cats i.v., VIII 1,0, IX 0,5 and 1,0, XX 1,0 and 2,0 mg/kg, XXIII 1.0, verapamil 0.5 mg/kg
  effect on heart rate, in words: expressed bradycardia
[2]; 0.5 mg/kg i.v., after 2 min
  Cardiac volume, change from basal level: −3.5 ± 6.0%
  Heart rate, change from basal level: −11.6 ± 2.8 %
  Mean blood flow accelaration (aortic), change from basal level: +11.0 ± 8.8%
  Mean blood pressure, change from basal level: +4.4 ± 4.7%
  Stroke volume, change from basal level: +9.4 ± 6.5%
[2]; 0.5 mg/kg i.v., after 5 min
  Cardiac volume, change from basal level: −1.7 ± 4.8%
  Mean blood flow accelaration (aortic), change from basal level: +0.6 ± 4.9%
  Mean blood pressure, change from basal level: −5.4 ± 2.3%
  Stroke volume, change from basal level: +5.6 ± 5.6%
[2]; 0.5 mg/kg i.v., after 10 min
  Cardiac volume, change from basal level: −4.2± 2.1%
  Heart rate, change from basal level: −7.3 ± 1.6 %
  Mean blood flow accelaration (aortic), change from basal level: +3.0 ± 4.0%
  Mean blood pressure, change from basal level: −1.2 ± 3.6%
  Stroke volume, change from basal level: +3.6 ± 3.0%
[2]; 0.5 mg/kg i.v., after 20 min
  Cardiac volume, change from basal level: −6.1 ± 3.4%
  Heart rate, change from basal level: −4.5 ± 2.2%
  Mean blood flow accelaration (aortic), change from basal level: +5.6 ± 5.1%
  Mean blood pressure, change from basal level: −4.1 ± 4.8%
  Stroke volume, change from basal level: −0.7 ± 4.0%
[2]; 0.5 mg/kg i.v., after 30 min
  Cardiac volume, change from basal level: −2.8 ± 7.8%
  Heart rate, change from basal level: −5.3 ± 2.3%
  Mean blood flow accelaration (aortic), change from basal level: +1.8 ± 5.8%
  Mean blood pressure, change from basal level: −4.9 ± 6.5%
  Stroke volume, change from basal level: +1.8 ± 9.3%
[2]; [6]
  Cardiac volume, change from basal level: +6.5 ± 2.8%
  Heart rate, change from basal level: −8.0 ± 3.5%
  Mean blood flow accelaration (aortic), change from basal level: +8.8 ± 5.8%
  Mean blood pressure, change from basal level: −2.1 ± 3.0%
  Stroke volume, change from basal level: +17.0 ± 5.5 %
[2]; 1.0 mg/kg i.v., after 2 min
  Cardiac volume, change from basal level: +2.2 ± 3.5%
  Heart rate, change from basal level: −14.1 ± 2.1 %
  Mean blood flow accelaration (aortic), change from basal level: ± 8.6 +3.8%
  Mean blood pressure, change from basal level: +0.6 ± 2.7%
  Stroke volume, change from basal level: +19.3 ± 4.6 %
[2]; 1.0 mg/kg i.v., after 5 min
  Cardiac volume, change from basal level: +1.7 ± 6.8%
  Heart rate, change from basal level: −10.6 ± 1.5 %
  Mean blood flow accelaration (aortic), change from basal level: +13.6 ± 5.7%
  Mean blood pressure, change from basal level: −3.8 ± 3.4%
  Stroke volume, change from basal level: +13.8 ± 7.8%
[2]; 1.0 mg/kg i.v., after 10 min
  Cardiac volume, change from basal level: −1.3 ± 6.8%
  Heart rate, change from basal level: −7.1 ± 1.0 %
  Mean blood flow accelaration (aortic), change from basal level: +9.6 ± 3.9 %
  Mean blood pressure, change from basal level: −6.8 ± 2.5 %
  Stroke volume, change from basal level: +5.9 ± 6.3%
[2]; 1.0 mg/kg i.v., after 20 min
  Cardiac volume, change from basal level: −0.2 ± 3.8%
  Heart rate, change from basal level: −4.2 ± 1.9%
  Mean blood flow accelaration (aortic), change from basal level: +13.1 ± 5.0 %
  Mean blood pressure, change from basal level: −1.9 ± 2.9%
  Stroke volume, change from basal level: +4.4 ± 4.5%
[2]; 1.0 mg/kg i.v., after 30 min
  Cardiac volume, change from basal level: −2.5 ± 5.1%
  Heart rate, change from basal level: −2.3 ± 3.5%
  Mean blood flow accelaration (aortic), change from basal level: +3.9 ± 2.0%
  Mean blood pressure, change from basal level: −2.7 ± 2.9%
  Stroke volume, change from basal level: +0.7 ± 6.7%
[2]; [7]
  Cardiac volume, change from basal level: +17.6 ± 8.2%
  Heart rate, change from basal level: −15.4 ± 2.7 %
  Mean blood flow accelaration (aortic), change from basal level: +14.8 ± 8.8%
  Mean blood pressure, change from basal level: −1.6 ± 7.3%
  Stroke volume, change from basal level: +34.21 ± 0.6 %
[3]
  Adrenaline arrhythmia. Range of active doses: 0.3 to 0.7 mg/kg
[4]; 0.1 mg/kg i.p., M ± mx
  Number of defecations: 0.1 ± 0.1
[4]; [8]
  Peripheral activity (crossings): 15.1 ± 9.0
  Total activity: 15.1 ± 9.0
[4]; [9]
  Peripheral activity (crossings): 39.8 ± 7.3
  Total activity: 39.8 ± 7.3
[4]; 5.0 mg/kg i.p., M ± mx
  Peripheral activity (crossings): 44.1 ± 10.2
  Total activity: 44.1 ± 10.2
[4]; [10]
  Peripheral activity (crossings): 36.8 ± 5.0
  Total activity: 36.8 ± 5.0
[4]; 20.0 mg/kg i.p., M ± mx
  Peripheral activity (crossings): 17.8 ± 5.5
  Total activity: 17.8 ± 5.5
[4]; i.p., screening
  effect on the behavior (locomotor activity) of Balb/c mice in open-field test, in words: able to activate the behavior of Balb/c mice
[5]; Rattus norvegicus, iv, concious rats, given 2 min prior calcium chloride 250-300 mg/kg i.v., read-out: Calcium chloride arrhythmia ED50 (mean effective dose)
  ED50: 1 mg/kg
[5]; concious rats, injected 2 min prior calcium chloride
  effect on death from lethal ventricular fibrillation, in words: prevents the death of animals
[5]; rats, higher than lidocaine
  activity relative to lidocaine, calcium chloride arrhythmia: 7,5 folds
[5]; rats, higher than novocainamide
  activity relative to novocainamide, calcium chloride arrhythmia: 50 folds
